From US11471395B2, “Method for preventing aging with bioactive compound” (TCI CO., LTD., priority 2020, dated 2022)

What was measured:
Type in all cases: cell-based
SIRT1 gene = test: Anti-aging gene expression test in human fibroblasts (qPCR), SIRT1 gene; settings: 25 μg synthesized peptide per 1 ml medium, human fibroblasts (CCD-966SK), 24 h, 37° C.
Description: (§1) In order to confirm the effect of each of the amino acid sequences on gene expression in cells, human fibroblasts (CCD-966SK) and individual synthesized peptides were co-cultured, and then, gene expression in the cells was analyzed. 6 types of synthesized peptides were respectively subjected to cell experiments. In addition, the amino acid sequences of 6 types of synthesized peptides were respectively SEQ ID NO: 1, SEQ ID NO: 2, SEQ ID NO: 3, SEQ ID NO: 4, SEQ ID NO: 5 and SEQ ID NO: 6. The sequence numbers SEQ ID NO: 1 to SEQ ID NO: 6 will be referred to as groups. […]
(§2) For peptide experiment groups (corresponding to Experiment group A to Experiment group F), according to a proportion of 25 μg of synthesized peptide per 1 ml of cell culture medium, the human fibroblasts were cultured for 24 h at 37° C. […] In addition, the primers firstly reacted by a green fluorescent dye of SYBR green dye (Applied Biosystem), and quantification of gene expression was performed by a 2-ΔΔCt method. It should be noted that the gene expression in the drawings was shown in relative fold, ratio or percentage, where standard deviations were calculated by an STDEV formula of Excel software, and statistically significant differences were analyzed by one-tailed student t-test in the Excel software. […]

CCT6A gene = test: Anti-aging gene expression test in human fibroblasts (qPCR), CCT6A gene; settings: 25 μg synthesized peptide per 1 ml medium, human fibroblasts (CCD-966SK), 24 h, 37° C.
Description: as §1, §2

CCT2 gene = test: Anti-aging gene expression test in human fibroblasts (qPCR), CCT2 gene; settings: 25 μg synthesized peptide per 1 ml medium, human fibroblasts (CCD-966SK), 24 h, 37° C.
Description: as §1, §2

[1] = system: mitochondria activities of human fibroblasts (CCD-966SK); test: Mitochondria activity test (JC-1 membrane potential, flow cytometry); settings: 24 h, 37° C.
Description: Then, in order to confirm the effect of each of the amino acid sequences on mitochondria activities, human fibroblasts (CCD-966SK) and the individual peptides were co-cultured, and then, the mitochondrion activities was analyzed. 6 types of synthesized peptides were respectively subjected to mitochondria activity tests. In addition, the amino acid sequences of 6 types of synthesized peptides were respectively SEQ ID NO: 1, SEQ ID NO: 2, SEQ ID NO: 3, SEQ ID NO: 4, SEQ ID NO: 5 and SEQ ID NO: 6. The sequence numbers SEQ ID NO: 1 to SEQ ID NO: 6 will be referred to as groups.
For mitochondria activity tests, after human fibroblasts and samples to be tested (such as peptides or compositions) were co-cultured, then, co-cultured cells were treated by a mitochondria membrane potential detection kit (containing a JC-1 mitochondria coloring agent, purchased from BD). Mitochondria activity test groups were divided into 7 groups.
Firstly, each of the groups (Experiment group H to Experiment group M, and Control group) was co-cultured with 1×10^5 human fibroblasts in a cell culture plate containing 2 ml of cell culture medium (X-VIVO™ 10). Then, the samples to be tested for each of the group were added into corresponding culture plates according to Table 6, and were co-cultured with the human fibroblasts at 37° C. for 24 h. Control group was co-cultured for 24 h by a peptide-free culture medium under the same conditions.
Before the mitochondria activity test was performed, a JC-1 mitochondria coloring agent was prepared. Firstly, a 10× JC-1 buffer solution was preheated at 37° C., was then diluted into a 1× JC-1 buffer solution by a 1× phosphate buffer solution (PBS, purchased from Gibco), and was maintained at 37° C. after being uniformly mixed. 130 μl of dimethyl sulfoxide (DMSO) was added into a lyophilized JC-1 reagent to prepare a JC-1 stock solution. Then, the JC-1 stock solution was diluted 1000 folds by the 1× JC-1 buffer solution to prepare a JC-1 work solution.
After co-culture for 24 h, the cell culture medium in the culture plate was removed. The co-cultured cells were rinsed twice by PBS so as to remove the residual cell culture medium. The cells were trypsinized from the culture plate, and were collected into a 1.5 ml microcentrifuge tube to be centrifuged for 5 min at 400×g so as to form a primary supernatant and a primary cell precipitate. After the primary supernatant was removed, the primary cell precipitate was resuspended by PBS to form a primary cell solution. The primary cell solution was transferred into a 1.5 ml centrifuge tube to be centrifuged for 5 min at 400×g again so as to separate the primary cell solution into a secondary supernatant and a secondary cell precipitate. Then, after the secondary supernatant was removed, 100 μl of JC-1 work solution was added to the secondary cell precipitate and vortexed to form a secondary cell solution. The secondary cell solution was cultured in dark at a room temperature for 15 min.
After cultured dark, the secondary cell solution was centrifuged for 5 min at 400×g. […] Standard deviations of the results were calculated by an STDEV formula of Excel software, and statistically significant differences were analyzed by one-tailed student t-test in the Excel software. […]

CCT7 gene = test: Anti-aging gene expression test in human fibroblasts (qPCR), CCT7 gene; settings: 25 μg synthesized peptide per 1 ml medium, human fibroblasts (CCD-966SK), 24 h, 37° C.
Description: as §1, §2

Ubl-5 gene = test: Anti-aging gene expression test in human fibroblasts (qPCR), Ubl-5 gene; settings: 25 μg synthesized peptide per 1 ml medium, human fibroblasts (CCD-966SK), 24 h, 37° C.
Description: as §1, §2

CCT5 gene = test: Anti-aging gene expression test in human fibroblasts (qPCR), CCT5 gene; settings: 25 μg synthesized peptide per 1 ml medium, human fibroblasts (CCD-966SK), 24 h, 37° C.
Description: as §1, §2

Pink1 gene = test: Anti-aging gene expression test in human fibroblasts (qPCR), Pink1 gene; settings: 25 μg synthesized peptide per 1 ml medium, human fibroblasts (CCD-966SK), 24 h, 37° C.
Description: as §1, §2

CCT8 gene = test: Anti-aging gene expression test in human fibroblasts (qPCR), CCT8 gene; settings: 25 μg synthesized peptide per 1 ml medium, human fibroblasts (CCD-966SK), 24 h, 37° C.
Description: as §1, §2

Atg8 gene = test: Anti-aging gene expression test in human fibroblasts (qPCR), Atg8 gene; settings: 25 μg synthesized peptide per 1 ml medium, human fibroblasts (CCD-966SK), 24 h, 37° C.
Description: as §1, §2

Which “fold of upregulation of SIRT1 gene expression vs Control group” value (SIRT1 gene) does the source give for “DKPLIPEGP (listed as Pangasius bocourti) [SEQ ID NO: 5, synthesized peptide of Basa skin; Titin, tandem duplicate 2]” here?
Its value is 6.62 folds.

What about the “fold of upregulation of CCT6A gene expression vs Control group” value (CCT6A gene) of the same sequence?
Its value is 5.47 folds.

What about the “fold of upregulation of CCT2 gene expression vs Control group” value (CCT2 gene) of the same sequence?
The value was 5.86 folds.

What about the “improvement of mitochondria activities as compared with Control group” value (“improvement … compared with Control group” for short) ([1]; 10 μg peptide in 2 ml medium) of the same sequence?
Its value is 26.7%.

And the “fold of upregulation of CCT7 gene expression vs Control group” value (CCT7 gene)?
The value was 7.92 folds.

What about the “fold of upregulation of Ubl-5 gene expression vs Control group” value (Ubl-5 gene) of the same sequence?
The value was 5.24 folds.

And the “fold of upregulation of CCT5 gene expression vs Control group” value (CCT5 gene)?
The value was 6.03 folds.

What about the “fold of upregulation of Pink1 gene expression vs Control group” value (Pink1 gene) of the same sequence?
Its value is 5.85 folds.

What about the “fold of upregulation of CCT8 gene expression vs Control group” value (CCT8 gene) of the same sequence?
The value was 6.88 folds.

And the “fold of upregulation of Atg8 gene expression vs Control group” value (Atg8 gene)?
The value was 5.13 folds.

How did the “fold of upregulation of SIRT1 gene expression vs Control group” value (SIRT1 gene) turn out when “GPLGPIGPPGLP (listed as Pangasius bocourti) [SEQ ID NO: 6, synthesized peptide of Basa skin; Procollagen, type V, alpha I]” was run?
The value was 6.52 folds.

What about the “fold of upregulation of CCT6A gene expression vs Control group” value (CCT6A gene) of the same sequence?
The value was 5.28 folds.

What about the “fold of upregulation of CCT2 gene expression vs Control group” value (CCT2 gene) of the same sequence?
Its value is 5.71 folds.

And the “improvement … compared with Control group” value ([1]; 25 μg peptide in 2 ml medium)?
Its value is 68.9%.

And the “fold of upregulation of CCT7 gene expression vs Control group” value (CCT7 gene)?
Its value is 7.89 folds.

What about the “fold of upregulation of Ubl-5 gene expression vs Control group” value (Ubl-5 gene) of the same sequence?
Its value is 5.16 folds.

What about the “fold of upregulation of CCT5 gene expression vs Control group” value (CCT5 gene) of the same sequence?
Its value is 6.76 folds.

And the “fold of upregulation of Pink1 gene expression vs Control group” value (Pink1 gene)?
The value was 6.42 folds.

What about the “fold of upregulation of CCT8 gene expression vs Control group” value (CCT8 gene) of the same sequence?
Its value is 6.43 folds.

And the “fold of upregulation of Atg8 gene expression vs Control group” value (Atg8 gene)?
The value was 4.28 folds.

“NPGPHGQPGPPGP (listed as Pangasius bocourti) [SEQ ID NO: 4, synthesized peptide of Basa skin; Persistent plexus]” was tested. Which “improvement … compared with Control group” value ([1]; 10 μg peptide in 2 ml medium) did it give?
The value was 32.9%.

How did the “improvement … compared with Control group” value ([1]; 10 μg peptide in 2 ml medium) turn out when “PGAPGSSGPKG (listed as Pangasius bocourti) [SEQ ID NO: 2, synthesized peptide of Basa skin; collagen, type XIV]” was run?
Its value is 32.7%.

With “VAEGAQGNIGPA (listed as Pangasius bocourti) [SEQ ID NO: 3, synthesized peptide of Basa skin; Kinesin family member 21B]” as the sequence, how does the “improvement … compared with Control group” value ([1]; 10 μg peptide in 2 ml medium) read?
The value was 25.6%.
